Results on three compounds are retold here after patent publication US8367735B2, “Pharmaceutical compositions” (Crawford Healthcare Holdings Limited, priority 2006, dated 2013).

Molecules are shown by their SMILES.

Data set [1] deals with human Burkitt lymphoma HS-Sultan cells. Nature of the data set: Annexin V staining apoptosis, HS-Sultan cells. In kind it is cell-based. Here is the method:
(§1) Cell Culture and Treatments. Human breast cancer MDA-MB-231, human melanoma SK-MEL-28, and human Burkitt lymphoma HS-Sultan cell lines, obtained from ATCC (Manassas, Va.), were grown at 37° C. in 5% CO2 and 95% humidified air in cell culture medium containing 10% fetal calf serum, 2 mM glutamine and antibiotics ([…] penicillin and 0.1 mg/ml streptomycin) (Life Technologies, Inc.). Each compound to be assayed was dissolved in absolute ethanol and diluted in the culture medium immediately before use. Control cells received the same amount of ethanol diluent. Cells were incubated with the assay compound or control diluent for 8 hours, unless indicated otherwise. Cell viability was determined by vital-dye exclusion assay (Trypan blue, 0.1%).
Flow Cytometry. For Annexin V staining, cells were washed once with PBS and resuspended in staining buffer (10 mM HEPES pH 7.4, 140 mM NaCl, 2.5 mM CaCl) with […] of AnnexinV-PI (AnnexinV-FITC, Becton-Dickinson). After 15 minutes of incubation in the dark, cells were directly analyzed in a FACScan (Becton-Dickinson). Cells were evaluated with CellQuest Program (Becton-Dickinson). Data were plotted using a histogram algorithm, in which the intensities of Annexin V-positive cells were represented as percent of untreated control. Exemplary data obtained from human Burkitt lymphoma HS-Sultan cells and human melanoma SK-MEL-28 cells (24 hour incubation for SK-MEL-28 cells) are provided in FIGS. 1 and 2, respectively.
Electrophoretic Mobility Shift Assay (EMSA). […] Complexes were analyzed by nondenaturing 4% polyacrylamide gel electrophoresis. […] Quantitative evaluation of NF-κB-κB complex formation was determined by Typhoon-8600 Imager (Molecular Dynamics), using ImageQuant software (MDP analysis). […]

Data set [2] deals with human melanoma SK-MEL-28 cells. Nature of the data set: Annexin V staining apoptosis, SK-MEL-28 cells. Type of data set: cell-based. Particulars: 24 hour incubation, in comparison to Cisplatin, Etoposide and Vinblastine, FIG. 2. Here is the method: as §1
Flow Cytometry. For Annexin V staining, cells were washed once with PBS and resuspended in staining buffer (10 mM HEPES pH 7.4, 140 mM NaCl, 2.5 mM CaCl) with […] of AnnexinV-PI (AnnexinV-FITC, Becton-Dickinson). After 15 minutes of incubation in the dark, cells were directly analyzed in a FACScan (Becton-Dickinson). Cells were evaluated with CellQuest Program (Becton-Dickinson). Data were plotted using a histogram algorithm, in which the intensities of Annexin V-positive cells were represented as percent of untreated control. […]

In data set [3] the test system is human breast cancer MDA-MB-231 cells. Nature of the data set: DNA fragmentation (Cell-Death-Detection ELISA), MDA-MB-231 cells. Type of data set: cell-based. The settings on record: 5 μM, 48 hour incubation, FIG. 3. Here is the method:
as §1
DNA Fragmentation. Cytoplasmic histone-bound DNA fragments (mono- and oligo-nucleosomes) generated during apoptosis were measured by Cell-Death-Detection ELISA kit (Roche Diagnostics, Mannheim, Germany), according to the manufacturer's instructions. Histone-associated DNA fragments were quantified spectrophotometrically using antibodies against DNA and histones in a colorimetric assay. Enrichment in cytoplasmic nucleosomes was expressed as fold-induction of levels in untreated controls. […] At 5 μM CTM-208, apoptosis was increased more than 35-fold over the untreated control.
Background: An ELISA detects its analyte on a solid surface through an enzyme-linked reagent.

The subject of data set [4] is NF-κB. The experiment in a line: EMSA of NF-κB DNA-binding activity in HS-Sultan cells. Type of data set: cell-based. The settings on record: Homo sapiens, FIG. 6. Here is the method:
as §1
Electrophoretic Mobility Shift Assay (EMSA). For nuclear extract preparation, cells (2×10^6 cells/sample) were lysed in hypotonic lysis buffer (10 mM NaCl, 3 mM MgCl2, 10 mM Tris-HCl pH 7.8, 0.5% NP40, 1 mM DTT) and then in high-salt extraction buffer (50 mM Tris-HCl, 400 mM NaCl, 1 mM EDTA, 1 mM EGTA, 1% Triton, 0.5% NP-40, 10% glycerol, 1 mM DTT, 1 mM PMSF, 0.5 μg/ml leupeptin, 0.7 μg/ml pepstatin, 0.2% aprotinin). […] Complexes were analyzed by nondenaturing 4% polyacrylamide gel electrophoresis. […] Quantitative evaluation of NF-κB-κB complex formation was determined by Typhoon-8600 Imager (Molecular Dynamics), using ImageQuant software (MDP analysis). […]
(In EMSA bound probe runs differently from free probe, usually more slowly.)

Data set [5] concerns Human keratinocytes (HaCaT). Nature of the data set: HaCaT cell proliferation assay (viable cell count). Type of data set: cell-based. Particulars: 48 hours after treatment. Here is the method:
(§2) Cell Lines and Treatments. Human keratinocytes (HaCaT) were grown routinely in DMEM supplemented with 10% FBS and 2 mM L-glutamine at 37° C. in a 5% CO2 humidified atmosphere. Human umbilical vein endothelial cells (HUVEC), obtained from Clonetics (San Diego, Calif., USA), were cultured in EGM medium (Clonetics, San Diego, Calif., USA) supplemented with 2% FBS, […], […] hydrocortisone, […] gentamicin, 3 mg/ml BBE (bovine brain extract) at 37° C. in a 5% CO2 humidified atmosphere.
Compounds. CTM-208 was dissolved in absolute ethanol or DMSO (0.1 M stock solution), stored at −20° C., and diluted in the culture medium immediately before use. Control cells received the same amount of DMSO diluent that had no effect on cell proliferation at the concentrations tested. Methotrexate was dissolved in DMSO. […]
Cell Proliferation Assay. […] At 48 hours after the addition of the compounds, cell proliferation was determined by counting the number of viable cells in a hemocytometer. Cell viability was determined by the Trypan blue vital dye exclusion technique. IC50 values on the increase in the number of cells over the number of seeded cells were calculated at 48 hours after treatment.
Effect of CTM-208 on human keratinocyte proliferation. […] At 48 hours after the addition of the compounds, cell proliferation was determined by counting the number of viable cells in a hemocytometer. […]

For data set [6], the system named is Human endothelial cells (HUVEC). Nature of the data set: HUVEC DNA synthesis (BrdU incorporation). Type of data set: cell-based. Particulars: 48 hours, read-out: IC50 endothelial cell proliferation (BrdU DNA synthesis). Here is the method:
as §2
Compounds. CTM-208 was dissolved in absolute ethanol or DMSO (0.1 M stock solution), stored at −20° C., and diluted in the culture medium immediately before use. […]
DNA synthesis. […] DNA synthesis was evaluated by incorporation of 5-bromo-2-deoxy-uridine (BrdU) into cellular DNA 48 hours after the addition of the compounds. The amount of BrdU integrated into DNA was evaluated by using a monoclonal antibody against BrdU (cell proliferation ELISA colorimetric assay, Roche). Absorbance (l: 405 nm) was measured using a Victor microtiter plate reader (Wallac), and data were analyzed using the Allfit program.
Effect of CTM-208 on human endothelial cell proliferation. […] At 48 hours after the addition of the compounds, DNA synthesis was evaluated by incorporation of 5-bromo-2-deoxy-uridine (BrdU) into cellular DNA. […]
For orientation: Incorporation of labelled thymidine or its analogues reports DNA synthesis.

In data set [7] the test system is HSF. Nature of the data set: EMSA of HSF induction in human keratinocytes. Type of data set: cell-based.
Data set [8] concerns NF-κB. Nature of the data set: EMSA of NF-κB DNA-binding activity in human keratinocytes. In kind it is cell-based. The settings on record: Keratinocyte, read-out: NF-κB.
Description: Electrophoretic Mobility Shift Assay (EMSA). For nuclear extract preparation, cells (2×10^6 cells/sample) were lysed in hypotonic lysis buffer (10 mM NaCl, 3 mM MgCl2, 10 mM Tris-HCl pH 7.8, 0.5% NP40, 1 mM DTT) and then in high-salt extraction buffer (50 mM Tris-HCl, 400 mM NaCl, 1 mM EDTA, 1 mM EGTA, 1% Triton, 0.5% NP-40, 10% glycerol, 1 mM DTT, 1 mM PMSF, 0.5 μg/ml leupeptin, 0.7 μg/ml pepstatin, 0.2% aprotinin). Equal amounts of protein (6 μg/sample) were incubated with ^32P-labeled κB-DNA probe followed by analysis of DNA-binding activity by EMSA. Binding reactions were performed as described (11). Complexes were analyzed by nondenaturing 4% polyacrylamide gel electrophoresis. Specificity of protein-DNA complexes was verified by immunoreactivity with polyclonal antibodies specific for the NF-κB subunit, p65/RelA. Quantitative evaluation of NF-κB-κB complex formation was determined by Typhoon-8600 Imager (Molecular Dynamics), using ImageQuant software (MDP analysis).
The test system of the next data set is human keratinocytes. The experiment in a line: LD50 in human keratinocytes. In kind it is cell-based. Here is the method:
Cell Proliferation Assay. HaCaT cells (2.5×10^4 cells/well) were seeded in 24-well plates. After 24 hours, the medium was removed and the test compounds were added at different concentrations. At 48 hours after the addition of the compounds, cell proliferation was determined by counting the number of viable cells in a hemocytometer. Cell viability was determined by the Trypan blue vital dye exclusion technique. IC50 values on the increase in the number of cells over the number of seeded cells were calculated at 48 hours after treatment.

Data set [9] relates to HSF. The experiment in a line: EMSA of HSF induction in human endothelial cells. Type of data set: cell-based.
For data set [10], the system named is NF-κB. The experiment in a line: EMSA of NF-κB DNA-binding activity in human endothelial cells. The settings on record: Endothelial cell. Type of data set: cell-based. Here is the method:
as §2
Electrophoretic Mobility Shift Assay (EMSA). For nuclear extract preparation, cells (2×10^6 cells/sample) were lysed in hypotonic lysis buffer (10 mM NaCl, 3 mM MgCl2, 10 mM Tris-HCl pH 7.8, 0.5% NP40, 1 mM DTT) and then in high-salt extraction buffer (50 mM Tris-HCl, 400 mM NaCl, 1 mM EDTA, 1 mM EGTA, 1% Triton, 0.5% NP-40, 10% glycerol, 1 mM DTT, 1 mM PMSF, 0.5 μg/ml leupeptin, 0.7 μg/ml pepstatin, 0.2% aprotinin). Equal amounts of protein (6 μg/sample) were incubated with ^32P-labeled κB-DNA probe followed by analysis of DNA-binding activity by EMSA. Binding reactions were performed as described (11). Complexes were analyzed by nondenaturing 4% polyacrylamide gel electrophoresis. […] Quantitative evaluation of NF-κB-κB complex formation was determined by Typhoon-8600 Imager (Molecular Dynamics), using ImageQuant software (MDP analysis). […]

In another data set the test system is human endothelial cells. Nature of the data set: LD50 in human endothelial cells. In kind it is cell-based.
The next data set relates to HSF1. Particulars: cited from earlier work.
Data set [11] concerns NF-κB. The settings on record: chemical or physiological inducers; cited from earlier work.

With `COC(=O)[C@H](CSC1CC(=O)/C(=C/c2ccccc2)CC1O[Si](C)(C)C(C)(C)C)NC(=O)OC(C)(C)C` (stereo partly drawn) [CTM-208, (R)-2-tert-Butoxycarbonylamino-3-[4E-benzylidene-2(tert-butyl-dimethylsilanyloxy)-5-oxo-cyclohexylsulfanyl]-propionic acid methyl ester], the apoptosis result in [1] (0.5 μM, 8 hour treatment) is on record as “approximately 90%”. Further, the “concentration at which induction of apoptosis starts to be effective” value in [1] (Annexin V-PI staining, FIG. 7) is 0.1 µM. Further, the “induction of apoptosis (Annexin V-positive cells)” value is “potent inducer of apoptosis” in data set [1] (in comparison to 15d-PGJ2, FIG. 1) and “potent inducer of apoptosis” in [2]. In [3], the “apoptosis increase over untreated control (cytoplasmic nucleosome enrichment)” value is “more than 35 fold”. Further, the IC50 came to 0.2 µM in the data set with NF-κB [4]; 2 µM in data set [5]; 1.6 µM in [6]; 19 µM in the data set with NF-κB [8]; 5 µM in the data set on NF-κB [10]. In addition, the “concentration for HSF induction” value in the data set with HSF [7] stood at 1.5 µM. Also, the LD50 in the data set with human keratinocytes is 400 µM; in the data set on human endothelial cells, above 400 µM. The “effective concentration for HSF induction” value in the data set with HSF [9] is below 1 µM.
Compound `CN(Cc1cnc2nc(N)nc(N)c2n1)c1ccc(C(=O)N[C@@H](CCC(=O)O)C(=O)O)cc1` [Methotrexate, reference compound] gave an IC50 in data set [5] below 0.1 µM. The “concentration for HSF induction” value with HSF [7] is above 400 µM. This compound also gave an LD50 in the data set with human keratinocytes above 400 µM.
Turning to `O=C1C=CCC1` [cyclopent-2-en-1-one], the “concentration able to activate HSF1 and trigger synthesis of HSP70” value with HSF1 was 125 to 500 µM. Also, in the data set with NF-κB [11], the “concentration able to block NF-κB activation” value is 125 to 500 µM.
